Patent publication US7320984B2, “Remedies or preventives for urinary frequency or urinary incontinence and morphinan derivatives having nitrogen-containing heterocyclic group” (Toray Industries, Inc., priority 2002, dated 2008)

Tested on: rhythmic bladder contractions in rats
Experiment: Inhibitory effect against rhythmic bladder contractions in rats
Type: in vivo
Conditions: anesthetized female SD rats, intravenous
Protocol: Inhibitory Effect Against Rhythmic Bladder Contractions in Rats
Female SD rats were anesthetized with an intraperitoneal administration of urethane (1.0 g/kg). A polyethylene tube was inserted from the urethra to the bladder and the tube was fixed by ligation. Then physiological saline was appropriately infused (infusion rate: about 0.2 ml/min., maximum: about 1.5 ml/animal) through the tube to cause rhythmic bladder contractions. The rhythmic bladder contractions were monitored by measuring the intravesical pressure through a polyethylene tube inserted into the bladder. After confirming that stable rhythmic bladder contractions occurred at least 10 times, a vehicle containing a prescribed dose of a test compound was intravenously administration at a dose of 1 ml/kg. In cases where the intravesical pressure, within 10 minutes after the administration of the test compound, decreased to 50% or less of the intravesical pressure immediately […] the administration, the test compound was judged as having inhibitory effect against urinary bladder contractions, and the time period until the intravesical pressure returned to more than 50% was defined as inhibitory time of rhythmic bladder contractions. As the vehicle for administration, physiological saline was used for test compounds 4, 7, 8, 9, 10, 13, 29, 30, 31, 33, 34, 75, 76, 79, 80, 81, 82, 84, 89, 90, 91, 93, 94, 95, 110 and 111, aqueous 10% dimethylsulfoxide (DMSO) solution was used for test compounds 11, 12, 14, 15, 16, 17, 18, 20, 21, 23, 28, 46, 47, 50, 55, 56, 57, 58, 59, 60, 61, 62, 63, 64, 65, 66, 68, 69, 70, 71, 72, 73, 74, 77, 78, 83, 85, 86, 87, 88, 92, 96, 97, 98, 99, 100, […], 103, 104, 105, 106, 107, 108 and […], aqueous 20% dimethylsulfoxide (DMSO) solution was used for test compounds 1, 2, 67 and 101, and aqueous 5% xylitol solution was used for test compounds 5 and 35. The aqueous 10% DMSO solution, aqueous 20% DMSO solution and the aqueous 5% xylitol solution per se, which may influence on the inhibitory time of rhythmic bladder contractions, were also tested at a dose of 1 ml/kg. With any of the compounds, prolongation of the inhibitory time of rhythmic bladder contractions was observed when compared with that obtained in the group to which the vehicle alone was administered.

## O=C1c2ccc(Cl)cc2C(=O)N1[C@@H]1CC[C@@]2(O)[C@H]3Cc4ccc(O)c5c4[C@@]2(CCN3CC2CC2)[C@H]1O5 [Compound 15, N-(17-cyclopropylmethyl-4,5α-epoxy-3,14-dihydroxy-morphinan-6β-yl)-4-chlorophthalimide]
Dose 0.01 mg/kg body weight
  Mean Inhibitory Time of Rhythmic Bladder Contractions: 12.2 min

## O=C1c2ccc(F)cc2C(=O)N1[C@@H]1CC[C@@]2(O)[C@H]3Cc4ccc(O)c5c4[C@@]2(CCN3CC2CC2)[C@H]1O5 [Compound 16, N-(17-cyclopropylmethyl-4,5α-epoxy-3,14-dihydroxy-morphinan-6β-yl)-4-fluorophthalimide]
Dose 0.005 mg/kg body weight
  Mean Inhibitory Time of Rhythmic Bladder Contractions: 14.8 min

## O=C1c2cccc(F)c2C(=O)N1[C@@H]1CC[C@@]2(O)[C@H]3Cc4ccc(O)c5c4[C@@]2(CCN3CC2CC2)[C@H]1O5 [Compound 17, N-(17-cyclopropylmethyl-4,5α-epoxy-3,14-dihydroxy-morphinan-6β-yl)-3-fluorophthalimide]
Dose 0.005 mg/kg body weight
  Mean Inhibitory Time of Rhythmic Bladder Contractions: 13.2 min

## Cc1cccc2c1C(=O)N([C@@H]1CC[C@@]3(O)[C@H]4Cc5ccc(O)c6c5[C@@]3(CCN4CC3CC3)[C@H]1O6)C2=O [Compound 18, N-(17-cyclopropylmethyl-4,5α-epoxy-3,14-dihydroxy-morphinan-6β-yl)-3-methylphthalimide]
Dose 0.01 mg/kg body weight
  Mean Inhibitory Time of Rhythmic Bladder Contractions: 13.7 min

## O=C1CCC(=O)N1[C@@H]1CC[C@@]2(O)[C@H]3Cc4ccc(O)c5c4[C@@]2(CCN3CC2CC2)[C@H]1O5 [Compound 20, N-(17-cyclopropylmethyl-4,5α-epoxy-3,14-dihydroxy-morphinan-6β-yl)-succinimide]
Dose 1.0 mg/kg body weight
  Mean Inhibitory Time of Rhythmic Bladder Contractions: 18.1 min

## O=C1C/C(=C\c2ccccc2)C(=O)N1[C@@H]1CC[C@@]2(O)[C@H]3Cc4ccc(O)c5c4[C@@]2(CCN3CC2CC2)[C@H]1O5 [Compound 21, N-(17-cyclopropylmethyl-4,5α-epoxy-3,14-dihydroxy-morphinan-6β-yl)-2-benzylidene-succinimide]
Dose 1.0 mg/kg body weight
  Mean Inhibitory Time of Rhythmic Bladder Contractions: 19.0 min

## O=C1C/C(=C\C2CCCCC2)C(=O)N1[C@@H]1CC[C@@]2(O)[C@H]3Cc4ccc(O)c5c4[C@@]2(CCN3CC2CC2)[C@H]1O5 [Compound 23, N-(17-cyclopropylmethyl-4,5α-epoxy-3,14-dihydroxy-morphinan-6β-yl)-2-cyclohexylmethylidene-succinimide]
Dose 1.0 mg/kg body weight
  Mean Inhibitory Time of Rhythmic Bladder Contractions: 32.0 min

## O=C1c2ccccc2CN1[C@@H]1CC[C@@]2(O)[C@H]3Cc4ccc(O)c5c4[C@@]2(CCN3CC2CC2)[C@H]1O5 [Compound 28, 2-(17-cyclopropylmethyl-4,5α-epoxy-3,14-dihydroxy-morphinan-6β-yl)-2,3-dihydro-isoisoindol-1-one]
Dose 0.3 mg/kg body weight
  Mean Inhibitory Time of Rhythmic Bladder Contractions: 19.6 min

## CCN(CC)C(=O)[C@@H]1CCCN1[C@@H]1CC[C@@]2(O)[C@H]3Cc4ccc(O)c5c4[C@@]2(CCN3C)[C@H]1O5 [Compound 29, 1-(4,5α-epoxy-3,14-dihydroxy-17-methyl-morphinan-6β-yl)-pyrrolidin-(2S)-carboxyl diethylamide]
Dose 1.0 mg/kg body weight
  Mean Inhibitory Time of Rhythmic Bladder Contractions: 0.8 min

## CCN(CC)C(=O)[C@H]1CCCN1[C@@H]1CC[C@@]2(O)[C@H]3Cc4ccc(O)c5c4[C@@]2(CCN3C)[C@H]1O5 [Compound 30, 1-(4,5α-epoxy-3,14-dihydroxy-17-methyl-morphinan-6β-yl)-pyrrolidin-(2R)-carboxyl diethylamide]
Dose 3.0 mg/kg body weight
  Mean Inhibitory Time of Rhythmic Bladder Contractions: 2.3 min

## CCN(CC)C(=O)[C@@H]1CCCN1[C@H]1CC[C@H]2[C@H]3Cc4ccc(O)c5c4[C@@]2(CCN3C)[C@H]1O5 [Compound 31, 1-(4,5α-epoxy-3-hydroxy-17-methyl-morphinan-6α-yl)-pyrrolidin-(2S)-carboxyl diethylamide]
Dose 1.0 mg/kg body weight
  Mean Inhibitory Time of Rhythmic Bladder Contractions: 1.0 min

## CCN(CC)C(=O)C1CCCN([C@@H]2CC[C@@]3(O)[C@H]4Cc5ccc(O)c6c5[C@@]3(CCN4C)[C@H]2O6)C1 (stereo partly drawn) [Compound 33, 1-(4,5α-epoxy-3,14-dihydroxy-17-methyl-3-morphinan-6β-yl)-piperidin-3-carboxyl diethylamide]
Dose 3.0 mg/kg body weight
  Mean Inhibitory Time of Rhythmic Bladder Contractions: 2.1 min

## O=C1CCCN1[C@H]1CC[C@@]2(O)[C@H]3Cc4ccc(O)c5c4[C@@]2(CCN3CC2CC2)[C@H]1O5 [Compound 34, 1-(17-cyclopropylmethyl-4,5α-epoxy-3,14-dihydroxy-morphinan-6α-yl)-pyrrolidin-2-one]
Dose 1.0 mg/kg body weight
  Mean Inhibitory Time of Rhythmic Bladder Contractions: 9.2 min

## O=C1C(Cc2ccccc2)CCN1[C@H]1CC[C@@]2(O)[C@H]3Cc4ccc(O)c5c4[C@@]2(CCN3CC2CC2)[C@H]1O5 (stereo partly drawn) [Compound 35, 1-(17-cyclopropylmethyl-4,5α-epoxy-3,14-dihydroxy-morphinan-6α-yl)-3-benzyl-pyrrolidin-2-one]
Dose 0.3 mg/kg body weight
  Mean Inhibitory Time of Rhythmic Bladder Contractions: 29.9 min

## O=C1CCCN1[C@@H]1CC[C@@]2(O)[C@H]3Cc4ccc(O)c5c4[C@@]2(CCN3CC2CC2)[C@H]1O5 [Compound 46, 1-(17-cyclopropylmethyl-4,5α-epoxy-3,14-dihydroxy-morphinan-6β-yl)-pyrrolidin-2-one]
Dose 1.0 mg/kg body weight
  Mean Inhibitory Time of Rhythmic Bladder Contractions: 20.0 min

## O=C1C(Cc2ccccc2)CCN1[C@@H]1CC[C@@]2(O)[C@H]3Cc4ccc(O)c5c4[C@@]2(CCN3CC2CC2)[C@H]1O5 (stereo partly drawn) [Compound 47, 1-(17-cyclopropylmethyl-4,5α-epoxy-3,14-dihydroxy-morphinan-6β-yl)-3-benzyl-pyrrolidin-2-one]
Dose 1.0 mg/kg body weight
  Mean Inhibitory Time of Rhythmic Bladder Contractions: 21.8 min

## O=C1/C(=C/c2ccccc2)CCN1[C@@H]1CC[C@@]2(O)[C@H]3Cc4ccc(O)c5c4[C@@]2(CCN3CC2CC2)[C@H]1O5 [Compound 50, 1-(17-cyclopropylmethyl-4,5α-epoxy-3,14-dihydroxy-morphinan-6β-yl)-3-benzylidene-pyrrolidin-2-one]
Dose 0.1 mg/kg body weight
  Mean Inhibitory Time of Rhythmic Bladder Contractions: 12.8 min

## O=C1c2cc(Cl)c(Cl)cc2C(=O)N1[C@@H]1CC[C@@]2(O)[C@H]3Cc4ccc(O)c5c4[C@@]2(CCN3CC2CC2)[C@H]1O5 [Compound 55, N-[17-(cyclopropylmethyl)-4,5α-epoxy-3,14-dihydroxymorphinan-6β-yl]-4,5-dichlorophthaimide]
Dose 0.1 mg/kg body weight
  Mean Inhibitory Time of Rhythmic Bladder Contractions: 15.0 min

## C=CCN1CC[C@]23c4c5ccc(O)c4O[C@H]2[C@H](N2C(=O)c4ccc(C)cc4C2=O)CC[C@@]3(O)[C@H]1C5 [Compound 56, N-(17-allyl-4,5α-epoxy-3,14-dihydroxymorphinan-6β-yl)-4-methylphthalimide]
Dose 0.1 mg/kg body weight
  Mean Inhibitory Time of Rhythmic Bladder Contractions: 13.7 min

## C=CCN1CC[C@]23c4c5ccc(O)c4O[C@H]2[C@H](N2C(=O)c4ccc(Cl)cc4C2=O)CC[C@@]3(O)[C@H]1C5 [Compound 57, N-(17-allyl-4,5α-epoxy-3,14-dihydroxymorphinan-6β-yl)-4-chlorophthalimide]
Dose 0.1 mg/kg body weight
  Mean Inhibitory Time of Rhythmic Bladder Contractions: 24.2 min

## C=CCN1CC[C@]23c4c5ccc(O)c4O[C@H]2[C@H](N2C(=O)c4ccc(F)cc4C2=O)CC[C@@]3(O)[C@H]1C5 [Compound 58, N-(17-allyl-4,5α-epoxy-3,14-dihydroxymorphinan-6β-yl)-4-fluorophthalimide]
Dose 0.03 mg/kg body weight
  Mean Inhibitory Time of Rhythmic Bladder Contractions: 19.3 min

## C=CCN1CC[C@]23c4c5ccc(O)c4O[C@H]2[C@H](N2C(=O)c4cc(Cl)c(Cl)cc4C2=O)CC[C@@]3(O)[C@H]1C5 [Compound 59, N-(17-allyl-4,5α-epoxy-3,14-dihydroxymorphinan-6β-yl)-4,5-dichlorophthalimide]
Dose 0.1 mg/kg body weight
  Mean Inhibitory Time of Rhythmic Bladder Contractions: 6.1 min

## C=CCN1CC[C@]23c4c5ccc(O)c4O[C@H]2[C@H](N2C(=O)c4cccc(C)c4C2=O)CC[C@@]3(O)[C@H]1C5 [Compound 60, N-(17-allyl-4,5α-epoxy-3,14-dihydroxymorphinan-6β-yl)-3-methylphthalimide]
Dose 0.03 mg/kg body weight
  Mean Inhibitory Time of Rhythmic Bladder Contractions: 19.7 min

## C=CCN1CC[C@]23c4c5ccc(O)c4O[C@H]2[C@@H](N2C(=O)c4cccc(C)c4C2=O)CC[C@@]3(O)[C@H]1C5 [Compound 61, N-(17-allyl-4,5α-epoxy-3,14-dihydroxymorphinan-6α-yl)-3-methylphthalimide]
Dose 0.03 mg/kg body weight
  Mean Inhibitory Time of Rhythmic Bladder Contractions: 22.6 min

## C=CCN1CC[C@]23c4c5ccc(O)c4O[C@H]2[C@H](N2C(=O)c4cccc(F)c4C2=O)CC[C@@]3(O)[C@H]1C5 [Compound 62, N-(17-allyl-4,5α-epoxy-3,14-dihydroxymorphinan-6β-yl)-3-fluorophthalimide]
Dose 0.01 mg/kg body weight
  Mean Inhibitory Time of Rhythmic Bladder Contractions: 15.3 min

## C=CCN1CC[C@]23c4c5ccc(O)c4O[C@H]2[C@@H](N2C(=O)c4cccc(F)c4C2=O)CC[C@@]3(O)[C@H]1C5 [Compound 63, N-(17-allyl-4,5α-epoxy-3,14-dihydroxymorphinan-6α-yl)-3-fluorophthalimide]
Dose 0.005 mg/kg body weight
  Mean Inhibitory Time of Rhythmic Bladder Contractions: 16.1 min
